Experimental data reported in US10005756B2, “Pyrrolidinone derivatives as MetAP-2 inhibitors” (Merck Patent GmbH, priority 2014, dated 2018).
Like-named read-outs stand apart in the source and are kept apart here.

System: human umbilical vein endothelial cells (HUVEC)
Experiment: HUVEC proliferation quantified by BrdU incorporation
Format: cell-based
Settings: read-out: IC50 HUVEC
Description: Determination of the Proliferation Inhibition by Inhibitors of Methionine Aminopeptidase 2 in the BrdU Proliferation Test (Cellular Assay)
After detachment of the cells by means of trypsin/EDTA, the number of living cells is determined, and the cells are sown in a density of 1000 cells per cavity in a total volume of 175 μl (cavities are coated in advance either with supplemented culture medium for 1-2 hours at 37° C. or with 1.5% gelatine for 0.5-2 hours at 37° C.). After cultivation for 24 hours, the test substances are added in various concentrations (for example final concentrations 30 μM to 0.03 nM in 10-fold dilution steps) and a volume of 25 μl. The DMSO concentration is kept constant at 0.3%. […] To this end, the cells are treated with a fixative for 30 min at room temperature and subsequently incubated with a peroxidase-labelled anti-BrdU antibody (diluted 1:100 in antibody dilution buffer) for 60 min at room temperature. […] The colour development is stopped after 15 min by addition of 25 μl of a 1M sulfuric acid solution. […] The controls used are cavities containing DMSO-treated cells (100% control) or empty cavities (blank value).
HUVEC Proliferation Quantified by BrdU Incorporation
HUVEC Means Human Umbilical Vein Endothelial Cells
HUVEC proliferation is measured after a 5 day incubation period using incorporation of BrdU as a measure of cell cycle activity. Cells are incubated in the presence or absence of test substances. During the last 18 to 24 hours of the incubation period BrdU is added to the medium. BrdU is incorporated into the DNA as the cells progress through S-phase (DNA synthesis) of the cell cycle. The cells are fixed and the amount of BrdU incorporated can be quantified using a commercial ELISA for detection of BrdU.
HUVEC are routinely cultured in EGM MV medium and used between passages 3 and 8.
All substances are run in triplicate.
Reference compounds are run in every assay.
Data is analyzed using the Assay Explorer program. Briefly, the blank is subtracted from all values, the triplicates are averaged and normalized to the untreated. EC50 is determined from a 4-parameter general sigmoidal curve (Hill fit y=(s0−slnf)/(1+(x/AC50)^nHill)+slnf) in Assay Explorer, Symyx). The processed data (EC50 or % Effect if no EC50 if reached, Efficacy) is uploaded directly from Assay Explorer to the MSRDB.

CC(C)(C)OC(=O)C(CCC(N)=O)NC(=O)c1cc2cc(N3CC[C@](O)(C(=O)NCc4cc(F)cc(Cl)c4)C3=O)ccc2[nH]1 (stereo in doubt) [Compound A27]
IC50 (HUVEC): 480 nM

NC(=O)c1cc2cc(N3CC[C@@](O)(C(=O)NCc4cc(F)cc(F)c4)C3=O)ccc2[nH]1 (stereo in doubt) [Compound A86]
IC50 (HUVEC): 71 nM

O=C(NCc1cc(F)cc(Cl)c1)[C@@]1(O)CCN(c2cccc(S(=O)(=O)N3CCNCC3)c2)C1=O [Compound A1]
IC50 (HUVEC): 1000 nM

C[C@H](c1ccccc1)N1CC[C@](O)(C(=O)NCc2cc(F)cc(Cl)c2)C1=O [Compound A2]
IC50 (HUVEC): 7000 nM

C[C@@H](c1ccccc1)N1CC[C@](O)(C(=O)NCc2cc(F)cc(Cl)c2)C1=O [Compound A3]
IC50 (HUVEC): 730 nM

O=C(NCc1cc(F)cc(Cl)c1)[C@@]1(O)CCN(c2cnc(Cl)c(F)c2)C1=O [Compound A4]
IC50 (HUVEC): 11000 nM

CCNS(=O)(=O)c1ccc(N2CC[C@](O)(C(=O)NCc3cc(F)cc(Cl)c3)C2=O)cc1 [Compound A5]
IC50 (HUVEC): 190 nM

N/C(=N\O)c1cc2cc(N3CC[C@](O)(C(=O)NCc4cc(F)cc(Cl)c4)C3=O)ccc2[nH]1 [Compound A6]
IC50 (HUVEC): 30 nM

O=C(NCc1cc(F)cc(Cl)c1)C1(O)CCN(c2cccc(-c3nnn[nH]3)c2)C1=O (centres unmarked) [Compound A7]
IC50 (HUVEC): 30000 nM

Cc1nnc(-c2cc3cc(N4CC[C@](O)(C(=O)NCc5cc(F)cc(Cl)c5)C4=O)ccc3[nH]2)o1 [Compound A8]
IC50 (HUVEC): 17 nM

O=C(NCc1cc(F)cc(Cl)c1)[C@@]1(O)CCN(c2ccc3[nH]c(-c4nnco4)cc3c2)C1=O [Compound A9]
IC50 (HUVEC): 14 nM

O=C(NCc1cc(F)cc(Cl)c1)[C@@]1(O)CCN(c2ccc3[nH]c(-c4nnn[nH]4)cc3c2)C1=O [Compound A10]
IC50 (HUVEC): 3800 nM

Cc1nc(-c2cc3cc(N4CC[C@](O)(C(=O)NCc5cc(F)cc(Cl)c5)C4=O)ccc3[nH]2)no1 [Compound A11]
IC50 (HUVEC): 24 nM

O=C(NCc1cc(F)cc(Cl)c1)C1=CCN(c2ccccc2)C1=O [Compound A12]
IC50 (HUVEC proliferation, BrdU incorporation): 3300 nM

O=C(NCc1cc(F)cc(Cl)c1)C1(O)C(=O)N(c2ccccc2)CC1O (centres unmarked) [Compound A13]
IC50 (HUVEC): 2500 nM

O=C(NCc1cc(F)cc(Cl)c1)C1(O)CCN(c2ccn[nH]2)C1=O (centres unmarked) [Compound A15]
IC50 (HUVEC): 5200 nM

O=C(NCc1cc(F)cc(Cl)c1)C1(O)CCN(c2ccc3oc(=O)ccc3c2)C1=O (centres unmarked) [Compound A16]
IC50 (HUVEC): 3500 nM

CC(=O)Nc1cc2cc(N3CCC(O)(C(=O)NCc4cc(F)cc(Cl)c4)C3=O)ccc2oc1=O (centres unmarked) [Compound A17]
IC50 (HUVEC): 1100 nM

O=C(NCc1cc(F)cc(Cl)c1)C1(O)CCN(c2cccc(O)c2)C1=O (centres unmarked) [Compound A18]
IC50 (HUVEC): 180 nM

Nc1ccc(N2CCC(O)(C(=O)NCc3cc(F)cc(Cl)c3)C2=O)cc1/C=C/C(=O)O (centres unmarked) [Compound A19]
IC50 (HUVEC): 180 nM

O=C(NCc1cc(F)cc(Cl)c1)C1(O)CCN(C(CO)c2ccccc2)C1=O (centres unmarked) [Compound A21]
IC50 (HUVEC): 4200 nM

O=C(NCc1cc(F)cc(Cl)c1)C1(O)CCN(c2ccc3[nH]c(Br)cc3c2)C1=O (centres unmarked) [Compound A22]
IC50 (HUVEC): 130 nM

O=C(NCc1cc(F)cc(Cl)c1)C1(O)CCN(c2ccc3[nH]c(-c4ccc(Cl)cc4)nc3c2)C1=O (centres unmarked) [Compound A25]
IC50 (HUVEC): 1300 nM

O=C(NCc1cc(F)cc(Cl)c1)[C@@]1(O)CCN(c2cncnc2)C1=O [Compound A26]
IC50 (HUVEC): 11000 nM

O=C(NCc1cc(F)cc(Cl)c1)C1(O)CCN(c2ccc3c(c2)CS(=O)(=O)C3)C1=O (centres unmarked) [Compound A28]
IC50 (HUVEC): 530 nM

O=C(NCc1cc(F)cc(Cl)c1)C1(O)CCN(c2ccc(C(O)(C(F)(F)F)C(F)(F)F)cc2)C1=O (centres unmarked) [Compound A29]
IC50 (HUVEC): 1500 nM

O=C(NCc1cc(F)cc(Cl)c1)[C@@]1(O)CCN(c2cnc3[nH]cc(Br)c3c2)C1=O [Compound A33]
IC50 (HUVEC): 5.4 nM

O=C(NCc1cc(F)cc(Cl)c1)[C@@]1(O)CCN(c2cnc3[nH]cc(I)c3c2)C1=O [Compound A34]
IC50 (HUVEC): 6.7 nM

NCCCCNC(=O)c1cc2cc(N3CC[C@](O)(C(=O)NCc4cc(F)cc(Cl)c4)C3=O)ccc2[nH]1 [Compound A35]
IC50 (HUVEC): 51 nM
